Measurements from patent US20090137538A1, “METHOD OF TREATING ATROPHIC VAGINITIS” (priority 2006, published 2009).
Like-named read-outs stand apart in the source and are kept apart here.

Legend:
[1] = relative risk ratio vs placebo, cited from earlier work
[2] = target: T1, sex hormone-binding globulin (SHBG) (Homo sapiens, UniProt P04278); settings: unlike estradiol and estrone; cited from earlier work
T1 sequence (P04278 30-402): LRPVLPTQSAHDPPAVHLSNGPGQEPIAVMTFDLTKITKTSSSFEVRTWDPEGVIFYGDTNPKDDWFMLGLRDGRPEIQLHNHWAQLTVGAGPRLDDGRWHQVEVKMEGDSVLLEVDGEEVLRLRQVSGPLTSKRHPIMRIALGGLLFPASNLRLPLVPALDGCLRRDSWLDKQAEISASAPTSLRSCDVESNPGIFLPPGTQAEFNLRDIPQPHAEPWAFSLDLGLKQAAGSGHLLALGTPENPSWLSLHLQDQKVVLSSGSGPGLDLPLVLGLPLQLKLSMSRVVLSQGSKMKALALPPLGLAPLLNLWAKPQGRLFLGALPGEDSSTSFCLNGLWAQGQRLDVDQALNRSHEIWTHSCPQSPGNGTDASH

[3] = system: women with recurrent urinary tract infections; settings: cited from earlier work
[4] = system: menopausal women; settings: cited from earlier work
[5] = system: lactobacilli; settings: cited from earlier work
[6] = system: SIV; settings: vaginal transmission; base cream alone 75%; cited from earlier work
[7] = system: urinary urgency, urge incontinence, nocturia; settings: vaginal therapy; cited from earlier work
[8] = system: endometrium; settings: oral 2 mg per day, average three weeks prior to hysterectomy; cited from earlier work
[9] = cited from earlier work
[10] = system: endometrium; assay: Example 6: endometrial biopsy at 6 months; format: in vivo, human; settings: vaginal dose of 30 mg in the combination suppository, biopsy after 6 months
Excerpt: Five patients underwent an endometrial biopsy (EMB) after 6 months of treatment.

[11] = cited from earlier work; remark: listed apart in the source
[12] = cited from earlier work; remark: listed apart in the source
[13] = vaginal ring, after vaginal administration; cited from earlier work
[14] = dose of 0.5 mg, menopausal patients

NC(=O)C(c1ccccc1)(c1ccccc1)[C@@H]1CCN(CCc2ccc3c(c2)CCO3)C1 [Darifenacin]
Any AE* ([1]; dose 7.5 mg): 1.2 | Constipation ([1]; dose 7.5 mg): 2.2 | Dry Mouth ([1]; dose 7.5 mg): 2.2 | Any AE* ([1]; dose 15 mg): 1.4 | Constipation ([1]; dose 15 mg): 2.4 | Dry Mouth ([1]; dose 15 mg): 2.9

C[C@]12CC[C@@H]3c4ccc(O)cc4CC[C@H]3[C@@H]1C[C@@H](O)[C@@H]2O [Estriol, 16-alpha, 17-beta, estra 1,3,5 (10) triene 3, 16, 17-triol]
binding to sex hormone-binding globulin [2]: does not bind | reduction of the requirement for antibiotics compared to those unsupplemented [3]: up to 16 times | reduction of the vaginal pH [4, 14]: failed to reduce | vaginal pH after therapy ([4]; menopausal women, ovules 1 mg, 24 weeks): 4.12 | patients in whom lactobacilli reappeared ([5]; after one month, no patients receiving placebo): 61% | restoration of the population of lactobacilli [5, 14]: failed to restore | SIV infection rate [6]: 8.3% | alleviating nocturia [7]: 54% | alleviating urge incontinence [7]: 58% | alleviating urinary urgency [7]: 56% | women with hyperplastic changes on histological exam of the uteri [8]: 70.8%

CC(=O)O[C@]1(C(C)=O)CC[C@H]2[C@@H]3C[C@H](C)C4=CC(=O)CC[C@]4(C)[C@H]3CC[C@@]21C [MPA, Medroxyprogesterone Acetate]
Lipid Profile ([9]; in vivo): MPA: adversely effects lipid profile and negates the beneficial | Liver function ([9]; in vivo): MPA: contraindicated in patients with liver dysfunction. | Sleep and Mood ([9]; in vivo): MPA: can cause insomnia, mental depression, and anxiety.

CCN(CC)CC#CCOC(=O)C(O)(c1ccccc1)C1CCCCC1 (stereo not drawn) [Oxybutynin IR, Oxybutynin]
Any AE* ([1]; dose 8.8-15 mg): 1.4 | Blurred Vision ([1]; dose 8.8-15 mg): 1.7 | Dry Mouth ([1]; dose 8.8-15 mg): 3.3 | Dyspepsia ([1]; dose 8.8-15 mg): 3.3 | Urinary Retention* ([1]; dose 8.8-15 mg): 5.6

CC(=O)[C@H]1CC[C@H]2[C@@H]3CCC4=CC(=O)CC[C@]4(C)[C@H]3CC[C@]12C [Progesterone, pregn-4-ene-3, 20-dione]
effect on estrogen stimulated postmenopausal endometrium [10]: anti-proliferative effect | Quality of life/menopausal symptoms ([9]; MP-containing HRT compared with MPA-containing regimen): containing HRT experienced significant improvement in symptoms | Cardiovascular Events ([9]; in vivo): MP: has antihypertensive action and can be safely used to treat | Lipid Profile ([9]; in vivo): MP: does not negate the beneficial effects of estrogen and modestly | Liver function ([9]; in vivo): MP: does not effect liver enzymes or cause liver related side | Sleep and Mood ([9]; in vivo): MP: improves the quality of sleep and has sedative properties. | serum concentration ([11]; 25 mg vaginal suppository): 7.27 ng/mL | serum concentration ([11]; 50 mg vaginal suppository): 8.84 ng/mL

O=C(O[C@H]1C[C@H]2CC[C@@H](C1)[N+]21CCCC1)C(O)(c1ccccc1)c1ccccc1 [Trospium]
Any AE* ([1]; dose 40 mg): 1.5 | Constipation ([1]; dose 40 mg): 2.1 | Dry Mouth ([1]; dose 40 mg): 3.2

C[C@]12CC[C@@H]3c4ccc(O)cc4CC[C@H]3[C@@H]1CC[C@@H]2O [estradiol]
serum estradiol levels after vaginal versus oral administration ([12]; same dose): ten-fold higher | endometrial concentrations after vaginal versus oral administration ([12]; same exact dose): seventy-fold higher

C#C[C@]1(O)CC[C@H]2[C@@H]3CCc4cc(O)ccc4[C@H]3CC[C@@]21C [ethinylestradiol]
bioavailability [13]: approximately 55.6%
